Data as given in PMC6182381, “Population Pharmacokinetics and Exposure-Response Relationships of Naldemedine” (Pharmaceutical Research, 2018).
Like-named read-outs stand apart in the source and are kept apart here.

Experiments:
[1] = system: patients with chronic non-cancer pain and OIC; assay: Adverse events / gastrointestinal disorders, phase 2b study 1107 V9221 (observed and PK/Safety logistic model); type: in vivo, human; details: for Gastrointestinal disorders, Mild / Gastrointestinal disorders, Moderate / Gastrointestinal disorders, Not_Reported / Gastrointestinal disorders, Severe: PK/safety population, 1107 V9221 (Phase 2b); for Predicted probability of gastrointestinal disorders: Phase 2b model; for Predicted probability of gastrointestinal disorders / Gastrointestinal disorders, Observation / Gastrointestinal disorders, Prediction: Moderate, Severe; for Gastrointestinal disorders, Observation / Gastrointestinal disorders, Prediction: Phase 2b
Text: (§1) Exposure-response analysis was used to evaluate the efficacy and safety data of the phase 2b and phase 3 studies ([2],[5]). The PK/Efficacy analysis included the subjects of the population PK analysis or in the placebo group, who also had efficacy data for the exposure-response analysis obtained from phase 2b and phase 3 studies (1107 V9221, 1314 V9231, and 1315 V9232). The PK/Safety analysis included the subjects of the population PK analysis or in the placebo group, who also had safety data for exposure-response analysis obtained from phase 2b and phase 3 studies (1107 V9221, 1314 V9231, and 1315 V9232).
(§2) The following efficacy variables were used to evaluate the exposure-response relationship. […] In the phase 3 studies (Study No. 1314 V9231 and 1315 V9232), an SBM responder was defined as having 9 positive response weeks or more out of the 12-weeks treatment period and 3 positive response weeks out of the last 4 weeks of the 12-weeks treatment period. A positive response week was defined as a week with both ≥3 SBMs and an increase of ≥1 SBM from the baseline. A subject with any insufficient response data was treated as a “non-responder”. The occurrence of treatment-emergent adverse events of gastrointestinal disorders as system organ class, which was the most frequently occurring type, was defined by the severity and assessed as safety variables.
(§3) No covariate was tested in the exposure-response analysis because no prognostic factors of the efficacy or safety were identified in the phase 2b and phase 3 studies ([2],[5]). Efficacy and safety data in Study No. 1314 V9231 and 1315 V9232 were combined because these studies were conducted as pivotal phase 3 studies using the same study design and were of the same treatment duration. The individual AUCss values for naldemedine were estimated by empirical Bayes estimation based on the population PK model. AUCss values of the subjects in the placebo group were treated as zero (0). For efficacy (responder or non-responder) and safety (occurrence of gastrointestinal disorders or not) variables, relationships to PK parameters were examined using the logistic model as shown in Eq. (3) with SAS (Version 9.2, SAS Institute).3 Probabilityefficacy or safety event=1/1+exp−a−b×PKparameter where a and b are the parameters to be estimated.

[2] = system: patients with chronic non-cancer pain and OIC; assay: Adverse events / gastrointestinal disorders, phase 3 studies 1314 V9231 and 1315 V9232 (observed and PK/Safety logistic model); type: in vivo, human; details: for Predicted probability of gastrointestinal disorders: Phase 3 model
Text: as §1, §2, §3

[3] = system: patients with chronic non-cancer pain and OIC; set-up: method as in PMID 28576452; details: cited from earlier work
[4] = system: patients with chronic non-cancer pain and OIC; set-up: method as in PMID 28371937; details: Phase 2b, cited from earlier work
[5] = system: patients with chronic non-cancer pain and OIC; set-up: method as in PMID 28576452; details: cited from earlier work; remark: listed apart in the source
[6] = PK/safety population, 1314 V9231 and 1315 V9232 (Phase 3), 0.2 mg
[7] = Phase 3, Mild, Moderate, Severe, 0.2 mg
[8] = Phase 3, Moderate, Severe, 0.2 mg

In the case of CC(C)(NC(=O)C1=C(O)[C@@H]2Oc3c(O)ccc4c3[C@@]23CCN(CC2CC2)[C@H](C4)[C@]3(O)C1)c1nc(-c2ccccc2)no1 [naldemedine], the “Gastrointestinal disorders, Mild” value ([1]; 0.1 mg) is reported as 1 (11.1) Count (Row percent), the “Gastrointestinal disorders, Moderate” value ([1]; 0.1 mg) is reported as 1 (11.1) Count (Row percent) and the “Gastrointestinal disorders, Not_Reported” value ([1]; 0.1 mg) is reported as 7 (77.8) Count (Row percent). The “Gastrointestinal disorders, Severe” value ([1]; 0.1 mg) was 0 (0.0) Count (Row percent), the “Gastrointestinal disorders, Mild” value ([1]; 0.2 mg) was 1 (11.1) Count (Row percent) and the “Gastrointestinal disorders, Moderate” value ([1]; 0.2 mg) was 3 (33.3) Count (Row percent). The “Gastrointestinal disorders, Not_Reported” value ([1]; 0.2 mg) was 5 (55.6) Count (Row percent), the “Gastrointestinal disorders, Severe” value ([1]; 0.2 mg) was 0 (0.0) Count (Row percent) and the “Gastrointestinal disorders, Mild” value ([1]; 0.4 mg) was 2 (20.0) Count (Row percent). The “Gastrointestinal disorders, Moderate” value ([1]; 0.4 mg) was 1 (10.0) Count (Row percent), the “Gastrointestinal disorders, Not_Reported” value ([1]; 0.4 mg) was 7 (70.0) Count (Row percent) and the “Gastrointestinal disorders, Severe” value ([1]; 0.4 mg) was 0 (0.0) Count (Row percent). For the same compound, the “Predicted probability of gastrointestinal disorders” value ([1]; Mild, Dose: 0.1 mg) was 0.195, the “Predicted probability of gastrointestinal disorders” value ([1]; Mild, Dose: 0.2 mg) was 0.254 and the “Predicted probability of gastrointestinal disorders” value ([1]; Mild, Dose: 0.4 mg) was 0.403. For the same compound, the “Predicted probability of gastrointestinal disorders” value ([1]; Dose: 0.1 mg) was 0.078, the “Predicted probability of gastrointestinal disorders” value ([1]; Dose: 0.2 mg) was 0.101 and the “Predicted probability of gastrointestinal disorders” value ([1]; Dose: 0.4 mg) was 0.165. The “Gastrointestinal disorders, Observation” value ([1]; Mild, 0.1 mg) was 22.2, the “Gastrointestinal disorders, Prediction” value ([1]; Mild, 0.1 mg) was 19.5 and the “Gastrointestinal disorders, Observation” value ([1]; Mild, 0.2 mg) was 44.4. The “Gastrointestinal disorders, Prediction” value ([1]; Mild, 0.2 mg) was 25.4, the “Gastrointestinal disorders, Observation” value ([1]; Mild, 0.4 mg) was 30.0 and the “Gastrointestinal disorders, Prediction” value ([1]; Mild, 0.4 mg) was 40.3. For the same compound, the “Gastrointestinal disorders, Observation” value ([1]; 0.1 mg) was 11.1, the “Gastrointestinal disorders, Prediction” value ([1]; 0.1 mg) was 7.8 and the “Gastrointestinal disorders, Observation” value ([1]; 0.2 mg) was 33.3. For the same compound, the “Gastrointestinal disorders, Prediction” value ([1]; 0.2 mg) was 10.1, the “Gastrointestinal disorders, Observation” value ([1]; 0.4 mg) was 10.0 and the “Gastrointestinal disorders, Prediction” value ([1]; 0.4 mg) was 16.5. The “predicted probability of severe gastrointestinal disorders” value ([2]; 0.2 mg and 0.4 mg, phase 3 study) was “less than 3%”, the “predicted probability of severe gastrointestinal disorders” value ([2]; 0.2 mg once daily) was “less than 3%” and the “predicted probability of mild to severe gastrointestinal disorders” value ([2]; 0.2 mg, phase 3) was 19.3%. For the same compound, the “predicted probability of moderate to severe gastrointestinal disorders” value ([2]; 0.2 mg, phase 3) was 8.3%, the “predicted probability of severe gastrointestinal disorders” value ([2]; 0.2 mg, phase 3) was 1.8% and the “Gastrointestinal disorders, Mild” value [2, 6] was 52 (11.7) Count (Row percent). The “Gastrointestinal disorders, Moderate” value [2, 6] was 34 (7.6) Count (Row percent), the “Gastrointestinal disorders, Not_Reported” value [2, 6] was 351 (78.9) Count (Row percent) and the “Gastrointestinal disorders, Severe” value [2, 6] was 8 (1.8) Count (Row percent). For the same compound, the “Gastrointestinal disorders, Observation” value [2, 7] was 21.1, the “Gastrointestinal disorders, Prediction” value [2, 7] was 19.3 and the “Gastrointestinal disorders, Observation” value [2, 8] was 9.4. The “Gastrointestinal disorders, Prediction” value [2, 8] was 8.3, the “Gastrointestinal disorders, Observation” value ([2]; Phase 3, Severe, 0.2 mg) was 1.8 and the “Gastrointestinal disorders, Prediction” value ([2]; Phase 3, Severe, 0.2 mg) was 1.8. For the same compound, the “Predicted probability of gastrointestinal disorders” value ([2]; Mild, Moderate, Severe, Dose: 0.1 mg) was 0.172, the “Predicted probability of gastrointestinal disorders” value ([2]; Mild, Moderate, Severe, Dose: 0.2 mg) was 0.193 and the “Predicted probability of gastrointestinal disorders” value ([2]; Mild, Moderate, Severe, Dose: 0.4 mg) was 0.242. For the same compound, the “Predicted probability of gastrointestinal disorders” value ([2]; Moderate, Severe, Dose: 0.1 mg) was 0.071, the “Predicted probability of gastrointestinal disorders” value ([2]; Moderate, Severe, Dose: 0.2 mg) was 0.083 and the “Predicted probability of gastrointestinal disorders” value ([2]; Moderate, Severe, Dose: 0.4 mg) was 0.113. The “Predicted probability of gastrointestinal disorders” value ([2]; Severe, Dose: 0.1 mg) was 0.015, the “Predicted probability of gastrointestinal disorders” value ([2]; Severe, Dose: 0.2 mg) was 0.018 and the “Predicted probability of gastrointestinal disorders” value ([2]; Severe, Dose: 0.4 mg) was 0.027. For the same compound, the proportion of responders ([3]; Study 1314 V9231 (Phase 3)) was 47.6%, the proportion of responders ([3]; Study 1315 V9232 (Phase 3)) was 52.5% and the Treatment-emergent adverse events ([4]; 0.1 mg) was 66.1%. For the same compound, the Treatment-emergent adverse events ([4]; 0.2 mg) was 67.2%, the Treatment-emergent adverse events ([4]; 0.4 mg) was 78.6% and the “Treatment-related adverse events (patients)” value ([5]; Study 1314 V9231, 59 of 271 patients) was 22%. For the same compound, the “Treatment-related adverse events (patients)” value ([5]; Study 1315 V9232, 54 of 271 patients) was 20%.
